Patent US6685968B1, “Boric acid sapstain control method” (priority 2003, dated 2004)

Tested on: sapstain
Conditions: fresh cut hackberry lumber dipped in aqueous solutions (1,3,5,7 and 10% boric acid; DOT at the same level of boric oxide); stacked for air drying; examined after six months of seasoning and planing
Protocol: Aqueous solutions containing 1,3,5,7, and 10% boric acid according to my preferred embodiment were prepared and used to treat fresh cut hackberry lumber by dipping. Aqueous disodium octaborate tetrahydrate solutions containing the same level of boric oxide were prepared and used in the same manner. This treated lumber, and untreated controls, was stacked in accordance with standard sawmill air drying practice. After six months of seasoning the lumber was planed, and examined for sapstain control.

**Q.** Which sapstain control does the source give for `OB(O)O` [boric acid] here?
**A.** superior sapstain control compared to the DOT concentrations

**Q.** For `O.O.O.O.O=BOB1OB(OB=O)OB2OB([O-])OB([O-])OB(O1)O2.[Na+].[Na+]` [DOT, disodium octaborate tetrahydrate], which sapstain control is on record?
**A.** superior to the untreated controls
